This is an account of results in patent US10751337B2, “Preservative free ocular compositions and methods for using the same for treating dry eye disease and other eye disorders” (The Board of Trustees of the University of Illinois, priority 2015, dated 2020).

Data set [1] concerns Evaporative dry eye (EDE) attributable to LASIK refractive surgery. The settings on record: person after LASIK; eye drops 0.15% in both eyes; most recent follow up. The source says: The patient treated was a person with severe symptoms of ocular discomfort. The patient had undergone LASIK refractive surgery in both eyes. The prior treatment history was that the patient was on doxycycline pills, warm compresses, erythromycin ointment and intermittently on steroid eye drops. […] The patient instilled the eye drops on the surface of the eye and spread the excess eye drops to both eye lid margins.

Data set [2] relates to Meibomian gland dysfunction (MGD) in patients with chronic ocular Graft-Versus-Host-Disease (oGVHD). The experiment in a line: Treatment of chronic ocular GVHD patients with Meibomian gland dysfunction, SGA and CGI assessment (Example 2).
For data set [3], the system named is Non-Sjogren dry eye syndrome (Meibomian gland dysfunction). The data set is described as follows: Treatment of a patient with non-Sjogren dry eye syndrome, MGD not due to ocular GVHD (Example 4). To be noted: person, 0.15% twice a day.
Data set [4] concerns Sjogren dry eye syndrome. The settings on record: person; 0.15% twice a day in both eyes.
Data set [5] deals with mixed dry eye disease (severe tear deficiency Meibomian gland dysfunction (MGD)). The settings on record: one patient.
Where [6] appears, read: ocular GVHD patients with MGD, summary statement.

Consider `Brc1c(NC2=NCCN2)ccc2nccnc12` [brimonidine, 5-Bromo-N-(4,5-dihydro-1H-imidazol-2-yl) quinoxalin-6-amine], for which the “patient-reported improvement of symptoms since starting treatment” value in data set [1] is 90%. Besides, the “patients who did not report any change (SGA)” value in data set [2] (18 patients (n=2), 0.15% twice a day) was determined as 11%. Further, in data set [2] (18 patients (n=6), 0.15% twice a day), the “patients who reported improvement (SGA)” value is given as 33%. Further, the “patients who reported much improvement (SGA)” value in data set [2] (18 patients (n=10), 0.15% twice a day) was 55%. The “patients with moderate to marked improvements in CGI” value in data set [2] (18 patients (n=15), 0.15% twice a day) was 83%. Besides, in data set [2] (18 patients, 0.15% twice a day), the “patients clinically worsened (CGI)” value is listed as “No patients had clinically worsened”, the “patients reporting worsening of symptoms or signs (SGA)” value is recorded as “No patients reported worsening of symptoms or signs” and the “tolerability of the eye drops” value is recorded as “easily tolerated”. Also, the “Subjective Global Assessment (SGA), mean (±SD)” value in data set [2] (18 patients, five point scale (Much worse to Much improved), 0.15% one drop twice a day, followed 6 months or more) turned out to be 4.4±0.69. Further, the “Clinical Global Impression (CGI), mean (±SD)” value in data set [2] (18 patients, seven point scale (Marked worsening to Marked improvement), 0.15% twice a day) is 6.2±0.88. In data set [2] (setting [6]), the “patients tested with a beneficial effect” value is reported as “approximately 90%” and the side effects result is listed as “without significant side effects”. In data set [3], the side effects entry is “No side effects were reported” and the “tolerability of the drops” value was “tolerated well”. Further, in data set [3] (most recent follow up), the “patient-reported redness of both eyes” value is “reduction in redness of both eyes”; the “patient-reported symptoms of dryness and burning” value was “reduction in symptoms of dryness and burning”. The “patient-reported symptoms and redness” value in data set [4] was “improvement in symptoms and redness”. Further, the “conjunctival and eyelid margin redness” value in data set [5] (0.15% aqueous solution twice a day to eyelash and eyelid margin area, 15 minutes after application) is reported as “significant reduction”. For the same compound, the “patient-reported symptoms of ocular discomfort” value in data set [5] (0.15% aqueous solution twice a day, after applying) is “reduced”.
